# Source: US20250179037A1 (Jiangsu Jibeier Pharmaceutical Co., Ltd., priority 2021, published 2025)
# Marks after values point to notes of the source that are not given here.
# What was measured:
# [1] = Test on saturated solubility in water (HPLC); format: physicochemical; conditions: for solubility property (compared with crystalline form C): conclusion from water saturation solubility table; for Solubility in 1 h / Solubility in 2 h / Solubility in 18 h: 37° C.
# Experimental: Test on Saturated Solubility in Water:
# • Chromatographic column: KromasiL C18 4.6*250 mm, 5 m • Column temperature: 30° C. flow rate: 1.0 mL/min sample size: 20 μL detection wavelength: 210 nm • Mobile phase: acetonitrile-water-glacial acetic acid (42:58:0.3) • Formulation of control solution: 10 mg of leucogen as a control product was precisely weighed, put in a 100-mL measuring flask, dissolved with the mobile phase, and diluted to the scale to afford 100 μg/mL of mother solution, and the mother solution was subjected to 10-fold, 100-fold, and 1000-fold serial dilutions to afford solutions at the concentrations of 10 μg/mL, 1 μg/mL, and 0.1 μg/mL, respectively.
# Formulation of test solution: about 20 mg of 211118 batch (crystalline form A) and 211124 batch (crystalline form B) of the leucogen samples were weighed, each for 3 copies, and put in six 10-mL test tubes with stoppers respectively; 10 mL of water was added respectively; the test tubes were oscillated under the conditions of 37° C. and 100 r/min for 1 h, 2 h, and 18 h respectively; the resultants were filtered through 0.45-μm microporous filter membranes, and the filtrates were taken as the test solutions.
# The control solution and the test solutions were tested under the above chromatographic conditions, separately. The area of the control solution was linearly regressed with its concentration. The saturated solubility in water was obtained from the peak areas of the test solutions.
# [2] = TGA/DSC test (thermostability); format: physicochemical; conditions: for thermostability (compared with crystalline form C): conclusion from TGA/DSC table
# From the text: TGA and DSC Test Methods:
# TGA and DCS patterns were collected on TA Discovery TGA 5500 thermogravimetric analyzer and TA Discovery DSC 2500 differential scanning calorimeter, respectively.
# [3] = system: mice leukopenia models (peripheral blood leukocytes); experiment: Cyclophosphamide-induced mice leukopenia model, leukocyte counts; format: in vivo, male Balb/C mice; conditions: for Leukocyte Level, End of treatment: 30 mg/kg intragastric once daily for 28 days, Day 29; for Leukocyte Level, End of treatment / Leukocyte Level, Before modeling / Leukocyte Level, After modeling: X ± S; for Leukocyte Level, Before modeling / Leukocyte Level, After modeling: 30 mg/kg intragastric once daily; for Leukocyte Level, Before modeling: Day 7 after drug administration; for Leukocyte Level, After modeling: Day 15, cyclophosphamide 25 mg/kg i.p. Day 8 to Day 14; for effect on leucocyte level compared to the leucogen crystalline form C group / leucocyte levels after treatment, compared to the model control group: 30 mg/kg, after treatment, P<0.05
# Experimental: A total of 100 male Balb/C mice with the body weight ranging from 22 g to 24 g were randomly selected and randomly divided into the following five groups: the normal control group, the model control group, the leucogen crystalline form A group, the leucogen crystalline form B group, and the leucogen crystalline form C group, 20 mice in each group. In the leucogen crystalline forms A, B and C groups, the mice were intragastrically administered with 30 mg/kg once daily for a total of 28 days. In the normal control group and the model control group, the mice were administered with an equal volume of saline once daily for a total of 28 days. In the model control group and the leucogen groups, 25 mg/kg of cyclophosphamide was intraperitoneally injected in the mice at Day 8 to Day 14 respectively to establish mice leukopenia models. Blood samples were collected from the retro-orbital venous sinus of mice before modeling, after modeling, and at the end of drug administration (i.e., Day 7, Day 15, and Day 29 after drug administration) for leukocyte counts, respectively. The experimental data were statistically processed with the SPSS 17.0 software package, and expressed as mean±standard deviation (X±S), where P<0.05 indicated there was a statistical significance.
# [4] = listed as Leucogen crystalline form A
# [5] = water, 100 r/min, oscillated 1 h
# [6] = water, 100 r/min, oscillated 2 h
# [7] = water, 100 r/min, oscillated 18 h
# [8] = listed as Leucogen crystalline form B
# [9] = listed as Leucogen crystalline form C
smiles,measurement,setting,value
CCOC(=O)C(c1ccccc1)C1N[C@H](C(=O)O)CS1 (some centres unmarked),solubility property (compared with crystalline form C),[1],better than that of the crystalline form C
same,solubility,"[1]; water, 37 °C, thermodynamic from solid",≥ 240 µg/mL
same,solubility at 1 h,"[1]; water, 37 °C, thermodynamic from solid, 100 r/min, oscillated 1 h",115 µg/mL
same,solubility at 2 h,"[1]; water, 37 °C, thermodynamic from solid, 100 r/min, oscillated 2 h",137 µg/mL
same,solubility at 18 h,"[1]; water, 37 °C, thermodynamic from solid, 100 r/min, oscillated 18 h",241 µg/mL
same,TGA Weight Loss (%),[2]; 100° C.,3.07 (100° C.) %
same,thermostability (compared with crystalline form C),[2],better than that of the crystalline form C
same,"Leukocyte Level, End of treatment",[3]; [4],9.23 ± 1.42*^Δ 10^9/L
same,"Leukocyte Level, Before modeling",[3]; [4],9.92 ± 1.59 10^9/L
same,"Leukocyte Level, After modeling",[3]; [4],3.31 ± 1.43 10^9/L
same,effect on leucocyte level compared to the leucogen crystalline form C group,[3],better effect
same,"leucocyte levels after treatment, compared to the model control group",[3],significantly increased
"CCOC(=O)C(c1ccccc1)C1N[C@H](C(=O)O)CS1 (single isomer, unassigned)",solubility property (compared with crystalline form C),[1],better than that of the crystalline form C
same,solubility in water,[1]; listed as crystalline form B of leucogen,≥ 256 µg/mL
same,Solubility in 1 h,[1]; [5],161.68 µg/mL
same,Solubility in 2 h,[1]; [6],177.41 µg/mL
same,Solubility in 18 h,[1]; [7],256.62 µg/mL
same,TGA Weight Loss (%),[2]; 150° C.,0.46 (150° C.) %
same,thermostability (compared with crystalline form C),[2],better than that of the crystalline form C
same,"Leukocyte Level, End of treatment",[3]; [8],8.98 ± 1.13*^Δ 10^9/L
same,"Leukocyte Level, Before modeling",[3]; [8],9.63 ± 0.99 10^9/L
same,"Leukocyte Level, After modeling",[3]; [8],3.46 ± 1.24 10^9/L
same,effect on leucocyte level compared to the leucogen crystalline form C group,[3],better effect
same,"leucocyte levels after treatment, compared to the model control group",[3],significantly increased
"CCOC(=O)C(c1ccccc1)C1N[C@H](C(=O)O)CS1 (single isomer, unassigned) [reference compound]",Solubility in 1 h,[1]; [5],112.64 µg/mL
same,Solubility in 2 h,[1]; [6],133.16 µg/mL
same,Solubility in 18 h,[1]; [7],227.89 µg/mL
same,TGA Weight Loss (%),[2]; 70° C.,3.54 (70° C.) %
same,"Leukocyte Level, End of treatment",[3]; [9],6.05 ± 1.56* 10^9/L
same,"Leukocyte Level, Before modeling",[3]; [9],9.98 ± 1.56 10^9/L
same,"Leukocyte Level, After modeling",[3]; [9],3.32 ± 0.89 10^9/L
same,"leucocyte levels after treatment, compared to the model control group",[3],significantly increased
